6 compounds from patent publication US10231958B2, “Methods and compositions for enhancing chemotherapy” (THE BOARD OF REGENTS OF THE UNIVERSITY OF TEXAS SYSTEM, priority 2015, dated 2019) can be followed below.

Series [1] deals with Intracellular ROS production. Put plainly: Real-time ROS production (DCF assay). It is filed as cell-based. The conditions noted are these: for effect on ROS levels: Trolox 200 μM, NAC 7.5 mM, GSH-E 10 mM. The procedure: Intracellular ROS production was detected using DCFH-DA probe (Sigma) (Zanotto-Filho et al., 2010, Cancer Lett 288, 192-203). This reagent enters the cells and reacts predominantly with highly oxidizing species of ROS, such as hydroxyl radicals, hydroperoxides, and peroxynitrite, thus producing the fluorophore DCF. Briefly, cells were seeded in black-edge clear bottom 96-well plates. After reaching 70% confluence, medium was changed and cells were incubated with 20 μM DCFH-DA dissolved in medium containing 0.5% FBS. After 1 h pre-incubation to allow DCFH-DA uptake, treatments were added to its respective final concentrations and DCF fluorescence was monitored at 0.5, 1, 3, 8, 12, 16 and 24 h in a fluorescence reader (Ex/Em=485/532 nm). Hydrogen peroxide was used as a positive control and N-acetylcysteine (NAC), GSH-ethyl-ester (GSH-E) and Trolox were used as antioxidant standards. As a control, at the end of 24 h, cell viability was assessed and compared to wells in the absence of DCFH-DA.

In series [2] the test system is Kc167 cells, MEFs, and MDA-MB231 breast cancer cells. Put plainly: Cell viability (CellTiter-Glo). The conditions noted are these: for effect on MMS toxicity / effect on toxicity of 4-HC, TMZ and CDDP: pre-incubation; for effect on MMS toxicity: then MMS, all cell types tested, 48 h; for effect on toxicity of 4-HC, TMZ and CDDP: then alkylator. It is filed as cell-based, D. melanogaster, mouse, human. As for the experimental part: The D. melanogaster embryonic cell line Kc167 was grown in Schneider medium (Invitrogen, Carlsbad, Calif.) supplemented with 10% heat-inactivated (56° C./30 min) fetal bovine serum (FBS), penicillin and streptomycin at 22° C. in a humidified incubator. Primary MEFs were obtained by harvesting 14.5-day C57BL/6J embryos as previously described (Ravi et al., 2009, PLoS Genet 5, e1000527). Briefly, fetal liver and head were removed and the remainder of the embryo was mechanically disaggregated in plating medium. A suspension of single-cells was plated in DMEM (plus 10% FBS, 100 U/mL penicillin and 100 μg/mL streptomycin). MEFs were grown for two passages before freezing aliquots. Aliquots were taken and expanded as needed for each experiment. MDA-MB231, SkBr3 and MCF-7 breast cancer cells lines were obtained from ATCC and grown in DMEM supplemented with 10% inactivated FBS plus antibiotics in a 37° C. humidified incubator at […] atmosphere. Cells were kept and treated in the exponential phase of growing (60-70% confluence). […] DMSO concentrations were kept to a maximum of 0.1% for all experiments. Cell viability was assessed using CellTiter-Glo Luminescent Viability assay (Promega) in 384 or 96-well plates white-border clear-bottom plated cells. For caspase-3/7 activity, Caspase-Glo 3/7 Assay kits were used (Promega). For caspase assays, the cells were seeded in 96-well plates and assayed directly after treatments. Caspase-3/7 inhibitor (Z-DEVD-fmk) was used to ensure assay specificity. LDH release into culture medium was quantified by Cytotox-96 Non-Radioactive assay kit in agreement with instructions (Promega).
Background: Cellular ATP, detected with luciferase, serves as a proxy for viable cell number.

In series [3] the test system is protein sulfhydryl (protein-SH) groups. Put plainly: Protein sulfhydryl groups (dibromobimane assay). Format: cell-based. The conditions noted are these: BSO treatment plus MMS. The procedure:
Protein reduced thiol groups (Protein-SH) were measured by dibromobimane assays with minor modifications (PMID:20463849). The 6-well plated cells (500,000 cells) were scraped in 0.6 mL PBS and 200 μL Perchloric acid (6 N) was added to precipitate proteins. The samples were incubated for 5 min in ice, centrifuged (14,000×g) Supernatants containing small peptides and glutathione were discarded and pellets were resuspended in 100 μL NaOH 0.1N, neutralized with 100 μL ice cold Perchloric acid (0.1 N), and 0.1 N PBS was added to keep pH constant. A stock solution of 4 mM dibromobimane in DMSO was added to a final concentration 40 μM, and incubated for 30 30 min at 37° C. Dibromobimane-protein fluorescence was measured at Ex=393 and, Em=477 nm.

Series [4] relates to Intracellular glutathione levels. Put plainly: Glutathione assay. The conditions noted are these: glutathione precursors. It is filed as cell-based. The procedure:
Intracellular glutathione levels were measured using the Glutathione (GSH/GSSG/Total) Fluorometric Assay Kit (BioVision Incorporated, Calif.), following manufacturer protocol. Briefly, 1×10^6 cells were scraped in PBS and centrifuged. Pellets were resuspended in 100 μL Glutathione assay buffer. 60 μL of this homogenate was mixed with PCA (perchloric acid) and centrifuged. Supernatant containing small molecules including GSH were neutralized with KOH and 3 fractions were collected and separated to analyze reduced (GSH), oxidized (GSSG) and total glutathione forms (GSH+GSSG) by reaction with OPA probe (o-phthalaldehyde) in the presence or absence of GSH quencher or reducing agents depending on the compound to be determined. Fluorescence was monitored at Ex/Em=340/420 nm for 40 min. Glutathione forms were calculated and normalized by protein (Bradford's assay).

For series [5], the system named is NRF2, GCLC, ER stress markers. Put plainly: Western blot of NRF2, GCLC and ER stress markers. It is filed as cell-based. The conditions noted are these: CHX 1 μg/mL, Actinomycin D 5 μg/mL, NAC 7.5 mM. As for the experimental part:
(§1) Western blot. Protein lysates were prepared using RIPA buffer containing 5% sodium deoxycholate, 0.1% SDS, 0.1% Igepal in PBS with a cocktail of protease and phosphatase inhibitors (1 mM PMSF, 1 mM sodium orthovanadate, 1 mM NaF, and 30 μL/mL aprotinin (Sigma-Aldrich, USA)) and clarified by centrifugation. Protein concentration was determined using Bradford Protein Assay Reagent (Biorad, Hercules, Calif.). Equal amounts of protein were resolved using 8-12% SDS polyacrylamide gel, transferred onto nitrocellulose membranes (Hybond-ECL, GE Healthcare Lifesciences, Piscataway, N.J.) and detected using Lumiglo system (Cell Signaling Technology, Calif.) and x-ray films. Primary antibodies included COX-2 (#4842), NRF2 (D1C9), p-JNK1/2 (Thr183/Tyr185, #4671), p-p38 (Thr180/Tyr182, #9216), p-ERK1/2 (Thr202/Tyr204, #9101), BiP/GRP78 (C50B12), IRE1a (14C10), CHOP (L63F7) and PERK (D11A8) from Cell Signaling Technology; p-IRE1a (Ser724; NB100-2323) from Novus Biologicals; GCLC (Ab41463), beta-actin (ab8227) and ATF6 (Ab37149) from Abcam; p-PERK (Thr 981, sc-32577) and ATF3 (C19) were purchased from Santa Cruz. All primary antibodies were used at 1:1000 dilutions and secondary antibodies were 1:3000 in TBS-T with 5% BSA.
In general terms: In western blotting, separated proteins are transferred to a membrane and probed.

The test system of series [6] is MAPKs (ERK1/2, JNK1/2 and p38) and ATF2. Put plainly: Western blot of MAPK phosphorylation. It is filed as cell-based. To be noted: MDA-MB231 cells, 8 h. As for the experimental part:
as §1

The test system of series [7] is AP1-responsive firefly luciferase construct in MDA-MB231 cells. Put plainly: AP-1 gene reporter assay. It is filed as cell-based, human. The conditions noted are these: MDA-MB231, pre-incubation with inhibitor. As for the experimental part:
(§2) Prior to transfection, cells were plated in 96-well plates to 80-90% confluence (100 μL antibiotic free-medium) after 24 h. When used, siRNA were incubated by reverse transfection during cells seeding. […] A mixture of non-inducible firefly luciferase construct and constitutively expressing Renilla luciferase construct (40:1) were used as negative controls. Approximately 24 h post-transfection, the medium was changed and the cells were treated for 12 h with alkylating agents (with/out 6 h pre-treatments). At the end of this period, medium was changed to drug-free fresh medium (to minimize the effect of alkylating toxicity on promoters activity) and cells were kept for an additional 12 h.
Background: A reporter such as luciferase makes a cellular process visible.

In series [8] the test system is NFκB-responsive firefly luciferase construct in MDA-MB231 cells. Kind of series: NFκB gene reporter assay. Format: cell-based, human. To be noted: MDA-MB231, pre-incubation with inhibitor. The procedure:
as §2

A further series relates to MDA-MB231 cells. Kind of series: Extracellular matrix invasion assay (Boyden chamber). Format: cell-based, human. The conditions noted are these: direct incubation. As for the experimental part: (§3) Quantification of MMP1 and MMP3 content in culture medium was assessed using RayBio-MMP3 and RayBio-MMP1 Elisa Kit (RayBiotech, Inc); IL8 was analyzed by Human IL-8 Elisa kit (Pierce Biotechnology). The levels of prostaglandin E2 (PGE2) were determined using the Prostaglandin E2 EIA Kit Monoclonal (Cayman Chemical Company). Culture media were diluted to fit within the standard curves. For conditioned media (CM) preparation for invasion and in vitro angiogenesis experiments, 12-well plated cells were treated with MMS (or MMS plus inhibitors) for 8 h in the presence of 10% FBS, twice washed with HBSS, and incubated with 700 μL drug/serum-free fresh medium for additional 12 h. Thereafter, the conditioned fresh medium was collected and directly used for migration and invasion experiments in order to reduce freezing associated loss of activity.
The invasion potential of breast cancer cells was estimated using the QCM™ 24-Well Cell Invasion Assay Fluorimetric (Millipore). Serum starved cells were trypsinized, trypsin-inhibited, centrifuged, resuspended to 5000 cells/μL, and 50 μL of this suspension (250,000 cells) was seeded on 8 μm pore size inserts coated with extracellular matrix in serum-free conditions. Afterwards, 200 μL conditioned (CM) or fresh medium without serum was added to top chambers. The bottom chamber consisted of 500 μL of DMEM supplemented with 10% FBS as chemoattractant. Cells were allowed to migrate for 24 h at 37° C. under 5% CO2. Invaded cells were detached from the bottom side of the insert, lysed and incubated with CyQuant GR fluorescent Dye for 15 min. Fluorescence was read at Ex/Em=480/520 nm. Percentage of invading cells was compared to cell number standard curves.

A further series deals with human endothelial cells. Kind of series: In vitro angiogenesis (Angiophase kit, CD31). Format: cell-based. To be noted: direct incubation. The procedure: as §3
The Angiophase kit (MBL Inc.) was used to assess the angiogenic potential of conditioned media (CM) from breast cancer cells or the direct effect of pharmaceutical inhibitors (free-drug system) on vessel-like structures formation in vitro. With this kit, human endothelial cells are co-cultured in a specially designed medium to form threadlike tubule structures. These gradually join up to form a network of anastomosing tubules, which resemble the capillary bed found in the CAM assay. Kit-provided cryopreserved co-culture of human endothelial cells were plated and kept for 96 h (proliferative phase) without treatments. Afterwards, the cells were maintained in the presence of conditioned medium from alkylating agent treated cells or control medium for a total of 14 days (angiogenic/vasculogenic phase). Medium was changed each 2 days. At the end of treatments, the cells were fixed and immune-stained for CD31 (PECAM-1), following by incubation with secondary antibody conjugate. ELISA was developed using the soluble substrate p-nitrophenyl-phosphate (p-NPP) whose product was colorimetrically read at 405 nm. After ELISA assays, the wells were washed with dH2O and tubule staining was performed by incubating CD31-stained tubules with the substrate BCIP/NBT, which form insoluble precipitates. Tubules were counted and photographed for qualitative monitoring.

For the compound `CCCCS(=N)(=O)CCC(N)C(=O)O` (centres unmarked) [BSO, buthionine sulfoximine], the “ROS production, agent alone” value in [1] (BSO 2.5 mM, CDDP 75 μM, TMZ 1.5 mM, 4HC 75 μM, 12 h) is reported as “increased ROS to levels higher than the dose of MMS used”. In addition, the “effect on MMS-induced ROS” value in [1] (BSO plus MMS) was 2 fold. In series [2] (2.5 mM, up to 48 h), the “viability, agent alone” value is recorded as “without effect on viability”. In addition, in series [2], the “effect on MMS toxicity” value is listed as “substantial necrotic cell death”; the “effect on toxicity of 4-HC, TMZ and CDDP” value is listed as “potentiated”. Also, the “effect on depletion of protein-SH residues by MMS” value in [3] is on record as “potentiated the depletion of protein-SH residues by MMS”.

As for `CCOC(=O)CNC(=O)[C@H](CS)NC(=O)CC[C@H](N)C(=O)O` [GSH-E, glutathione ethyl-ester], the “effect on ROS levels” value in series [1] is given as “reduced ROS below levels of the control”. For the same compound, the “effect on GSH levels” value in [4] is given as “effectively increased the GSH levels”. Besides, in series [2], the “effect on MMS toxicity” value is “protective against MMS toxicity”; the “effect on toxicity of 4-HC, TMZ and CDDP” value was “attenuated”.

For `CC(=O)N[C@@H](CS)C(=O)O` [NAC, N-Acetyl-Cysteine], in [5], the “effect on MMS-induced NRF2 activation” value was “block both NRF2 activation and ER stress caused by MMS”. The “effect on ROS levels” value in [1] is recorded as “reduced ROS below levels of the control”. In addition, the “effect on GSH levels” value in [4] is listed as “effectively increased the GSH levels”. Besides, the “effect on BSO+MMS toxicity” value in series [2] (NAC pretreatment) is reported as “rescued the deleterious effects of BSO+MMS combination”. Also, in series [2], the “effect on MMS toxicity” value is recorded as “protective against MMS toxicity”; the “effect on toxicity of 4-HC, TMZ and CDDP” value was “attenuated”. In addition, the “effect on MMS-induced MAPK phosphorylation” value in series [6] was “inhibited”.

Turning to `N#CC(=C(/N)Sc1ccccc1N)/C(C#N)=C(/N)Sc1ccccc1N` [UO126], in [7], the “effect on MMS-induced activation of AP-1 reporter” value was “blocked”. Also, in the series on MDA-MB231, the “decrease in cell numbers (anti-proliferative, not cytotoxic)” value is recorded as 30%. Further, the “effect on MMS-induced activation of NFκB reporter” value in [8] is on record as “blocked”.

Turning to IL8: purified IL8, the “trans-well invasion, purified factor” value in the series with MDA-MB231 cells was “stimulated trans-well invasion”. Moreover, the “vessel-like structure formation, purified factor” value in the series on human endothelial cells is “angiogenic”.

MMP1: purified MMP1: the “trans-well invasion, purified factor” value in the series with MDA-MB231 cells is “stimulated trans-well invasion”.
